According to patent US10196403B2, “Compounds and compositions and uses thereof” (Sunovion Pharmaceuticals Inc., priority 2016, dated 2019):

System: mice
Test: Neuropharmacological Assay (SmartCube)
Assay type: in vivo
Details: for minimal effective dose: Mus musculus, MED = dose having 50% or more total activity in SmartCube, read-out: POTENCY (minimal effective dose, MED); for AD: ADHD (SmartCube probability) / AG: analgesic (SmartCube probability) / AX: anxiolytic (SmartCube probability) / CE: cognitive enhancer (SmartCube probability) / DP: anti-depressant (SmartCube probability) / MS: mood stabilizer (SmartCube probability) / PS: anti-psychotic (SmartCube probability) / SD: sedative hypnotic (SmartCube probability) / UN: uncharacterized CNS activity (SmartCube probability): mice, i.p. 15 min before test, most efficacious dose(s) of 3 doses
Excerpt: Neuropharmacological Assay (SmartCube™)
Neurosci. 2011 Sep. 9; 5:103 (doi: 10.3389/fnins.2011.00103) (“Roberds”). As reported in Roberds, because psychiatric diseases generally result from disorders of cell-cell communication, circuitry, intact systems are useful in detecting improvement in disease-relevant endpoints. These endpoints are typically behavioral in nature, often requiring human observation and interpretation. To facilitate testing of multiple compounds for behavioral effects relevant to psychiatric disease, PsychoGenics, Inc. (Tarrytown, N.Y., “PGI”) developed SmartCube™, an automated system in which behaviors of compound-treated mice are captured by digital video and analyzed with computer algorithms. (D. Brunner et al., Drug Discov. Today 2002, 7:S107-S112). PGI Analytical Systems uses data from SmartCube™ to compare the behavioral signature of a test compound to a database of behavioral signatures obtained using a large set of diverse reference compounds. (The composition of the database as well as validation of the method is further described in Roberds). In this way, the neuropharmacological effects of a test compound can be predicted by similarity to major classes of compounds, such as antipsychotics, anxiolytics and antidepressants.
The SmartCube™ system produces an activity signature indicating the probability that the activity of the test compound at the administered dose matches a given class of neuropharmacological agents. (See, e.g., Roberds, FIGS. 2 and 3). The test compound is simultaneously compared against multiple classes of agents; thus, a separate probability is generated for each behavioral effect measured (e.g., anxiolytic activity, analgesic activity, etc.). In the table below, these probabilities are reported for each behavioral effect measured as follows:
where LOQ is the limit of quantification.
Provided compounds were dissolved in a mixture of Pharmasolve™ (N-methyl-2-pyrrolidone), polyethylene glycol and propylene glycol, and were injected i.p. 15 min. before the behavioral test. For each compound, injections were administered at 3 different doses. For each behavioral effect measured, results for the most efficacious dose(s) are presented. In the table below, DP: anti-depressant; AX: anxiolytic; SD: sedative hypnotic; PS: anti-psychotic; MS: mood stabilizer; AD: ADHD; CE: cognitive enhancer; AG: analgesic; UN: uncharacterized CNS activity.
The potency of many of the compounds in the table was also determined in the SmartCube™ system. Test compounds were routinely examined at dose levels of 0.3, 1, 3 10 and 30 mg per kg (mpk), although the dose range was increased or decreased if necessary to obtain a full dose response curve. A compound's minimal effective dose (MED) is a measure of the compounds potency. The MED was defined as the dose (in mpk) having 50% or more total activity in SmartCube.

Structure (SMILES)	minimal effective dose [mg/kg]	AD: ADHD (SmartCube probability)	AG: analgesic (SmartCube probability)	AX: anxiolytic (SmartCube probability)	CE: cognitive enhancer (SmartCube probability)	DP: anti-depressant (SmartCube probability)	MS: mood stabilizer (SmartCube probability)	PS: anti-psychotic (SmartCube probability)	SD: sedative hypnotic (SmartCube probability)	UN: uncharacterized CNS activity (SmartCube probability)
NC[C@@H]1OCCc2ccc3c(c21)OCO3 [Example 8, (R)-(6,9-dihydro-7H-[1,3]dioxolo[4,5-h]isochromen-9-yl)methanamine]	3 to 10	+ (LOQ≤ + <5%)	++ (5%≤ ++ <25%)	++ (5%≤ ++ <25%)	++ (5%≤ ++ <25%)	++ (5%≤ ++ <25%)	+ (LOQ≤ + <5%)	++ (5%≤ ++ <25%)	+ (LOQ≤ + <5%)	+++ (25%≤ +++ <50%)
CNC[C@H]1OCCc2ccc3c(c21)OCCO3 [Example 9, (S)-N-methyl-1-(2,3,7,10-tetrahydro-8H-[1,4]dioxino[2,3-h]isochromen-10-yl)methanamine]	3 to 10	+ (LOQ≤ + <5%)	++ (5%≤ ++ <25%)	++ (5%≤ ++ <25%)	+ (LOQ≤ + <5%)	+++ (25%≤ +++ <50%)	++ (5%≤ ++ <25%)	++ (5%≤ ++ <25%)	++ (5%≤ ++ <25%)	+++ (25%≤ +++ <50%)
CNC[C@@H]1OCCc2ccc3c(c21)OCCO3 [Example 10, (R)-N-methyl-1-(2,3,7,10-tetrahydro-8H-[1,4]dioxino[2,3-h]isochromen-10-yl)methanamine]	10 to 30	+ (LOQ≤ + <5%)	+ (LOQ≤ + <5%)	++ (5%≤ ++ <25%)	++ (5%≤ ++ <25%)	++ (5%≤ ++ <25%)	+ (LOQ≤ + <5%)	++ (5%≤ ++ <25%)	+ (LOQ≤ + <5%)	+++ (25%≤ +++ <50%)
NC[C@H]1OCCc2c1ccc1c2OCO1 [Example 11, (S)-(8,9-dihydro-6H-[1,3]dioxolo[4,5-f]isochromen-6-yl)methanamine]	3 to 10	++ (5%≤ ++ <25%)	+ (LOQ≤ + <5%)	+ (LOQ≤ + <5%)	+ (LOQ≤ + <5%)	++++ (50%≤ ++++)	+ (LOQ≤ + <5%)	+ (LOQ≤ + <5%)	+ (LOQ≤ + <5%)	+ (LOQ≤ + <5%)
NC[C@@H]1OCCc2c1ccc1c2OCO1 [Example 12, (R)-(8,9-dihydro-6H-[1,3]dioxolo[4,5-f]isochromen-6-yl)methanamine]	3 to 10	+ (LOQ≤ + <5%)	++ (5%≤ ++ <25%)	+ (LOQ≤ + <5%)	+ (LOQ≤ + <5%)	++++ (50%≤ ++++)	+ (LOQ≤ + <5%)	++ (5%≤ ++ <25%)	++ (5%≤ ++ <25%)	++ (5%≤ ++ <25%)
CNC[C@H]1OCCc2ccc(F)cc21 [Example 13, (S)-1-(7-fluoroisochroman-1-yl)-N-methylmethanamine]	10 to 30	+ (LOQ≤ + <5%)	++ (5%≤ ++ <25%)	++ (5%≤ ++ <25%)	+ (LOQ≤ + <5%)	++ (5%≤ ++ <25%)	+ (LOQ≤ + <5%)	+ (LOQ≤ + <5%)	++ (5%≤ ++ <25%)	+++ (25%≤ +++ <50%)
CNC[C@@H]1OCCc2ccc(F)cc21 [Example 15, (R)-1-(7-fluoroisochroman-1-yl)-N-methylmethanamine]	< 3	+ (LOQ≤ + <5%)	++ (5%≤ ++ <25%)	++ (5%≤ ++ <25%)	++ (5%≤ ++ <25%)	++ (5%≤ ++ <25%)	++ (5%≤ ++ <25%)	+++ (25%≤ +++ <50%)	++ (5%≤ ++ <25%)	+++ (25%≤ +++ <50%)
CNC[C@H]1OCCc2cc(F)ccc21 [Example 16, (S)-1-(6-fluoroisochroman-1-yl)-N-methylmethanamine]	10 to 30	+ (LOQ≤ + <5%)	++ (5%≤ ++ <25%)	++ (5%≤ ++ <25%)	+ (LOQ≤ + <5%)	++ (5%≤ ++ <25%)	+ (LOQ≤ + <5%)	+++ (25%≤ +++ <50%)	++ (5%≤ ++ <25%)	+ (LOQ≤ + <5%)
CNC[C@H]1OCCc2c(F)cccc21 [Example 18, (S)-1-(5-fluoroisochroman-1-yl)-N-methylmethanamine]	10 to 30	+ (LOQ≤ + <5%)	++ (5%≤ ++ <25%)	++ (5%≤ ++ <25%)	++ (5%≤ ++ <25%)	++ (5%≤ ++ <25%)	+ (LOQ≤ + <5%)	+ (LOQ≤ + <5%)	+ (LOQ≤ + <5%)	++ (5%≤ ++ <25%)
CNC[C@H]1OC[C@@H](C)c2ccccc21 [Example 19, N-methyl-1-((1S,4S)-4-methylisochroman-1-yl)methanamine]	3 to 10	+ (LOQ≤ + <5%)	++ (5%≤ ++ <25%)	++ (5%≤ ++ <25%)	++ (5%≤ ++ <25%)	++ (5%≤ ++ <25%)	++ (5%≤ ++ <25%)	++ (5%≤ ++ <25%)	+ (LOQ≤ + <5%)	++ (5%≤ ++ <25%)
CNC[C@@H]1OC[C@@H](C)c2ccccc21 [Example 20, N-methyl-1-((1R,4S)-4-methylisochroman-1-yl)methanamine]	< 3	+ (LOQ≤ + <5%)	+ (LOQ≤ + <5%)	++ (5%≤ ++ <25%)	++ (5%≤ ++ <25%)	++ (5%≤ ++ <25%)	+ (LOQ≤ + <5%)	++++ (50%≤ ++++)	++ (5%≤ ++ <25%)	++++ (50%≤ ++++)
CNC[C@H]1OC[C@@H](F)c2ccccc21 [Example 21, 1-((1S,4S)-4-fluoroisochroman-1-yl)-N-methylmethanamine]	3 to 10	+ (LOQ≤ + <5%)	+++ (25%≤ +++ <50%)	++ (5%≤ ++ <25%)	++ (5%≤ ++ <25%)	++ (5%≤ ++ <25%)	+ (LOQ≤ + <5%)	++ (5%≤ ++ <25%)	++ (5%≤ ++ <25%)	+++ (25%≤ +++ <50%)
